Where two headings read alike, the source gives them in different places.
Key:
algae [1] = assay: Lipid enhancement with glycerol (algae re-suspended in salts solution); type: cell-based; settings: 0.5, 1 and 5 g/L glycerol (all systems), within 24 h; pH 5; then decreased slightly
Procedure: The specific procedure was: • i. […] Rotate 20 min at 40% output (Glas-Col) • vi. Centrifuge at 3620 g for 5 min • vii.
Algae were first cultured and then collected by centrifuge.
The thin layer chromatography analysis was performed the same as in Experiment 2.

algae [2] = settings: 0.5 g/L sodium acetate, within 6 hours, increased from 40%; pH 5; then decreased
Procedure: For the dry weight analysis, algal cells were collected by centrifuging at 300 g for 10 min. After washing with deionized water once, the precipitant of the sample was transferred to pre-weighed aluminum plates and dried to a constant weight in an oven at 70 degrees C.
For the lipid analysis, the algal cells were collected at 300 g for 10 min. Then the lipid content of the precipitant from the sample was analyzed with the same lipid extraction procedure, which is modified from the Folch method. The specific procedure was: • i. Add 8 mL of chloroform and methanol mixture (2:1, v/v) to the sample • ii. Add 0.1 mL of HCl (5 M) to the sample • iii. Gradually add deionized water to the sample until a second phase appears • iv. Vortex for 3 min at full power (Vortex-Genie 2) • v. Rotate 20 min at 40% output (Glas-Col) • vi. Centrifuge at 3620 g for 5 min • vii. Collect the lower chloroform phase into a pre-weighed drying vessel • viii. Add 5 mL of chloroform and methanol mixture (2:1, v/v) to the sample and repeat steps iv, v, vi and vii • ix. Air dry the vessel to a constant weight and measure the weight.
Algae were first cultured and then collected by centrifuge. After washing with deionized water once, algae were re-suspended into salts solution (Table 1). […] During the batch studies, the pH of all systems was maintained at 5 with 0.05 mol/L NaOH and 0.05 mol/L HCl. […]

Row | Structure (SMILES) | lipid content (algae [1]) | lipid content (algae [2])
1 | OCC(O)CO [glycerol] | about 40 % of the dry weight | 
2 | CC(=O)[O-].[Na+] [sodium acetate] |  | 65 % of the dry weight

Source: patent US10584361B2, “Algae having intracellular lipid particles and high lipid content” (THE UNIVERSITY OF AKRON, priority 2012, dated 2020)
